Legend:
[1] = system: Senna tora (sickle senna); test: Field trial, herbicide control of Senna tora, with and without simulated rain; format: in vivo; settings: 30 days after treatment, 720 g ae/ha
From the text: Statistical calculations were done on the means.

[2] = system: Poa pratensis (meadowgrass or Kentucky blue grass); test: Greenhouse trial, sulfonylurea herbicides for grass weed control; format: in vivo; settings: mean of 3 replicates ± SD
Description: Greenhouse trials were carried out where the effect of ADS-1 on the efficacy of the sulfonylurea herbicides nicosulfuron (4.2% SC Motivell from BASF) and rimsulfuron (25% WG Cato from Dupont) for grass weed control was tested. Seed of the grass Poa pratensis (meadowgrass or Kentucky blue grass) was densely sown in pots and grown for 6 weeks until reaching a height of about 25 cm. The herbicides were tank mixed with the adjuvant ADS-1 at doses given also in the table. […] Researchers trained in the art have knowledge about such technology, and about the method of assessment.

With `O=C(O)CNCP(=O)(O)O` [Glyphosate, glyphosate] the “Control (%) of Senna tora” value ([1]; with 4 mm rain aftertreatment) was 75.0 d % and the “Control (%) of Senna tora” value ([1]; without rain aftertreatment) was 96.0 a %.
For `COc1cc(OC)nc(NC(=O)NS(=O)(=O)c2ncccc2C(=O)N(C)C)n1` [Nicosulfuron, nicosulfuron], the “% Control” value ([2]; Table 9, dose/ha 25 ml Motivell) was 87 ± 3%.
With `CCS(=O)(=O)c1cccnc1S(=O)(=O)NC(=O)Nc1nc(OC)cc(OC)n1` [Rimsulfuron, rimsulfuron] the “% Control” value ([2]; Table 10, dose/ha 10 g Cato) was 43 ± 6%.

From US20070213226A1, “AGROCHEMICAL COMPOSITIONS COMPRISING ALKYLENEDIOL-MODIFIED POLYSILOXANES” (priority 2006, published 2007)
